Counter-ions that a name gives are not always drawn.

For the first experiment, the target named is muscarinic receptors (rat cerebral cortex). Description: Radio ligand binding: displacement of the muscarinic agonist 3H-Oxotremorine-M (3H-OXO-M). The arrangement: species or system Hooded Lister rats. To be noted: displacement of 2nM 3H-OXO-M, rat cerebral cortex membranes, 2 mM magnesium chloride, 50 mM tris pH 7.7, 37° C., 30 min.
The IC50 is the concentration at which inhibition is half-maximal. Read a high IC50 as a need for much substance. Molecule `FCc1noc(C23CCCN(CC2)C3)n1` (racemic) [Example E1, (±) 5-(3-Fluoromethyl-1,2,4-oxadiazol-5-yl)-1azabicyclo[3.2.l]octane oxalate salt] returned an IC50 of 6.9 nM.
`Nc1noc(C23CCCN(CC2)C3)n1` (racemic) [Example E2, (±) 5-(3-Amino-1,2,4-oxadiazol-5-yl)-1-azabicyclo-[3.2.11octane] had an IC50 of 11 nM.
Molecule `Nc1noc(C23CCN(CC2)C3)n1` [Example E4] had an IC50 of 32.5 nM. This IC50 lies about 3-fold higher than the previous one.
For the molecule `FCc1noc(C23CCN(CC2)C3)n1` [Example E5, 4-(3-Fluoromethyl-1,2,4-oxadiazol-5-yl)-1-azabicyclo[2.2.11heptane oxalate salt], the IC50 was found to be 140 nM.

For a further experiment the target is unchanged.
Test: not given
It counts as binding, Hooded Lister rats. The note with it: displacement of 0.27 nM 3H-QNB, rat cerebral cortex membranes, 50 mM tris pH 7.7, 37° C., 30 min.
For the molecule `FCc1noc(C23CCCN(CC2)C3)n1` (racemic) [Example E1, (±) 5-(3-Fluoromethyl-1,2,4-oxadiazol-5-yl)-1azabicyclo[3.2.l]octane oxalate salt], the IC50 was 900 nM.
`Nc1noc(C23CCCN(CC2)C3)n1` (racemic) [Example E2, (±) 5-(3-Amino-1,2,4-oxadiazol-5-yl)-1-azabicyclo-[3.2.11octane]: the IC50 amounted to 2000 nM.
For the molecule `Nc1noc(C23CCN(CC2)C3)n1` [Example E4], the IC50 worked out at 2250 nM.
Same read-out and setting: as for `FCc1noc(C23CCN(CC2)C3)n1` [Example E5, 4-(3-Fluoromethyl-1,2,4-oxadiazol-5-yl)-1-azabicyclo[2.2.11heptane oxalate salt], the figure is 19500 nM.

Values taken from patent publication US4988706A (priority 1988, dated 1991).
